Data: patent US20080262056A1, “Oxindole Oxazolidinones as Antibacterial Agents” (Pfizer Inc, priority 2004, published 2008)
In brackets after ≈: the same amount, converted by molar mass.

Experiments:
Assay type in all cases: cell-based
[1] = test system: S. aureus UC-76 SA-1; assay: in vitro antibacterial activity (MIC), S. aureus; settings: for MIC90: Staphylococcus aureus, UC76, S. aureus UC-76 SA-1
Excerpt: (§1) The in vitro antibacterial activity of the compounds of the present invention may be assessed by following procedures recommended in (1) National Committee for Clinical Laboratory Standards (January 2003), Methods for dilution antimicrobial tests for bacteria that grow aerobically, Approved Standard (6th ed), M7-A6, NCCLS, Wayne, Pa.; (2) National Committee for Clinical Laboratory Standards (March 2001), Methods for antimicrobial susceptibility testing of anaerobic bacteria, Approved Standard (5th ed), M11-A4, NCCLS, Wayne, Pa.; (3) National Committee for Clinical Laboratory Standards (Jan. 2003), MIC testing supplemental tables, M100-S13 (for use with M7-A6), NCCLS, Wayne, Pa.; and (4) Murray P R, Baron E J, Jorgensen J H, et al. Manual of Clinical Microbiology (8th ed) Washington, D.C.: American Society for Microbiology Press, 2003. The MIC value is the lowest concentration of drug which prevented macroscopically visible growth under the conditions of the test.

[2] = test system: E. faecalis MGH-2 EF 1-1; assay: in vitro antibacterial activity (MIC), E. faecalis; settings: Enterococcus faecalis, MGH2EF11
Excerpt: as §1

[3] = test system: S. pneumoniae SV1 SP-3; assay: in vitro antibacterial activity (MIC), S. pneumoniae; settings: Streptococcus pneumoniae, SV1SP3
Excerpt: as §1

## CCCN1C(=O)Cc2cc(N3C[C@H](CNC(C)=O)OC3=O)ccc21 [Example 17, (S)—N-[2-oxo-3-(2-oxo-1-propyl-2,3-dihydro-1H-indol-5-yl)-oxazolidin-5-ylmethyl]-acetamide]
[1]
  MIC90: 4 µg/mL (≈ 12.1 µM)
[2]
  MIC90: 4 µg/mL (≈ 12.1 µM)
[3]
  MIC90: 2 µg/mL (≈ 6.04 µM)

## CCN1C(=O)Cc2cc(N3C[C@H](CNC(C)=O)OC3=O)cc(F)c21 [Example 7, (S)—N-[3-(1-ethyl-7-fluoro-2-oxo-2,3-dihydro-1H-indol-5-yl)-2-oxo-oxazolidin-5-ylmethyl]-acetamide]
[1]
  MIC90: 2 µg/mL (≈ 5.96 µM)
[2]
  MIC90: 2 µg/mL (≈ 5.96 µM)
[3]
  MIC90: 2 µg/mL (≈ 5.96 µM)

## CC(=O)NC[C@H]1CN(c2cc(F)c3c(c2)CC(=O)N3C(C)C)C(=O)O1 [Example 15, (S)—N-[3-(7-fluoro-1-isopropyl-2-oxo-2,3-dihydro-1H-indol-5-yl)-2-oxo-oxazolidin-5-ylmethyl]-acetamide]
[1]
  MIC90: 4 µg/mL (≈ 11.4 µM)
[2]
  MIC90: 2 µg/mL (≈ 5.72 µM)
[3]
  MIC90: 2 µg/mL (≈ 5.72 µM)

## CC(=O)NC[C@H]1CN(c2ccc3c(c2)CC(=O)N3C)C(=O)O1 [Example 1, (S)—N-[3-(1-methyl-2-oxo-2,3-dihydro-1H-indol-5-yl)-2-oxo-oxazolidin-5-ylmethyl]-acetamide]
[1]
  MIC90: 8 µg/mL (≈ 26.4 µM)
[2]
  MIC90: 2 µg/mL (≈ 6.59 µM)
[3]
  MIC90: 1 µg/mL (≈ 3.3 µM)

## CCC(C)N1C(=O)Cc2cc(N3C[C@H](CNC(C)=O)OC3=O)ccc21 (stereo partly drawn) [Example 24, (S)—N-[3-(1-sec-butyl-2-oxo-2,3-dihydro-1H-indol-5-yl)-2-oxo-oxazolidin-5-ylmethyl]-acetamide]
[1]
  MIC90: 8 µg/mL (≈ 23.2 µM)
[2]
  MIC90: 4 µg/mL (≈ 11.6 µM)
[3]
  MIC90: 4 µg/mL (≈ 11.6 µM)

## CCC(=O)NC[C@H]1CN(c2ccc3c(c2)CC(=O)N3C2CC2)C(=O)O1 [Example 22, (S)—N-[3-(1-cyclopropyl-2-oxo-2,3-dihydro-1H-indol-5-yl)-2-oxo-oxazolidin-5-ylmethyl]-propionamide]
[1]
  MIC90: 8 µg/mL (≈ 23.3 µM)
[2]
  MIC90: 4 µg/mL (≈ 11.6 µM)
[3]
  MIC90: 4 µg/mL (≈ 11.6 µM)

## CCC(=O)NC[C@H]1CN(c2cc(F)c3c(c2)CC(=O)N3C(C)C)C(=O)O1 [Example 16, (S)—N-[3-(7-fluoro-1-isopropyl-2-oxo-2,3-dihydro-1H-indol-5-yl)-2-oxo-oxazolidin-5-ylmethyl]-propionamide]
[1]
  MIC90: 8 µg/mL (≈ 22 µM)
[2]
  MIC90: 4 µg/mL (≈ 11 µM)
[3]
  MIC90: 4 µg/mL (≈ 11 µM)

## CC(=O)NC[C@H]1CN(c2ccc3c(c2)CC(=O)N3C(C)CF)C(=O)O1 (stereo partly drawn) [Example 28, (S)—N-{3-[1-(2-fluoro-1-methyl-ethyl)-2-oxo-2,3-dihydro-1H-indol-5-yl]-2-oxo-oxazolidin-5-ylmethyl}-acetamide]
[1]
  MIC90: 8 µg/mL (≈ 22.9 µM)
[2]
  MIC90: 4 µg/mL (≈ 11.4 µM)
[3]
  MIC90: 2 µg/mL (≈ 5.72 µM)

## CCCN1C(=O)Cc2cc(N3C[C@H](CNC(=O)CC)OC3=O)cc(F)c21 [Example 20, (S)—N-[3-(7-Fluoro-2-oxo-1-propyl-2,3-dihydro-1H-indol-5-yl)-2-oxo-oxazolidin-5-ylmethyl]-propionamide]
[1]
  MIC90: 8 µg/mL (≈ 22 µM)
[2]
  MIC90: 8 µg/mL (≈ 22 µM)
[3]
  MIC90: 4 µg/mL (≈ 11 µM)

## CC(=O)NC[C@H]1CN(c2cc(F)c3c(c2)CC(=O)N3C)C(=O)O1 [Example 3, N-[3-(7-fluoro-1-methyl-2-oxo-2,3-dihydro-1H-indol-5-yl)-2-oxo-oxazolidin-5-ylmethyl]-acetamide]
[1]
  MIC90: 4 µg/mL (≈ 12.4 µM)
[2]
  MIC90: 4 µg/mL (≈ 12.4 µM)
[3]
  MIC90: 2 µg/mL (≈ 6.22 µM)

## CCCN1C(=O)Cc2cc(N3C[C@H](CNC(=O)CC)OC3=O)ccc21 [Example 18, (S)—N-[2-oxo-3-(2-oxo-1-propyl-2,3-dihydro-1H-indol-5-yl)-oxazolidin-5-ylmethyl]-propionamide]
[1]
  MIC90: 8 µg/mL (≈ 23.2 µM)
[2]
  MIC90: 8 µg/mL (≈ 23.2 µM)
[3]
  MIC90: 4 µg/mL (≈ 11.6 µM)

## CCC(=O)NC[C@H]1CN(c2ccc3c(c2)CC(=O)N3CCF)C(=O)O1 [Example 10, (S)—N-{3-[1-(2-fluoro-ethyl)-2-oxo-2,3-dihydro-1H-indol-5-yl]-2-oxo-oxazolidin-5-ylmethyl}-propionamide]
[1]; S. aureus UC-76 SA-1
  in vitro antibacterial activity MIC90: 4 µg/mL
[1]
  MIC90: 8 µg/mL (≈ 22.9 µM)
[2]
  MIC90: 2 µg/mL (≈ 5.72 µM)
[3]
  MIC90: 2 µg/mL (≈ 5.72 µM)

## CCC(=O)NC[C@H]1CN(c2cc(F)c3c(c2)CC(=O)N3CC)C(=O)O1 [Example 8, (S)—N-[3-(1-ethyl-7-fluoro-2-oxo-2,3-dihydro-1H-indol-5-yl)-2-oxo-oxazolidin-5-ylmethyl]-propionamide]
[1]
  MIC90: 4 µg/mL (≈ 11.4 µM)
[2]
  MIC90: 2 µg/mL (≈ 5.72 µM)
[3]
  MIC90: 4 µg/mL (≈ 11.4 µM)

## CCC(=O)NC[C@H]1CN(c2ccc3c(c2)CC(=O)N3C)C(=O)O1 [Example 2, (S)—N-[3-(1-methyl-2-oxo-2,3-dihydro-1H-indol-5-yl)-2-oxo-oxazolidin-5-ylmethyl]-propionamide]
[1]
  MIC90: 8 µg/mL (≈ 25.2 µM)
[2]
  MIC90: 2 µg/mL (≈ 6.3 µM)
[3]
  MIC90: 1 µg/mL (≈ 3.15 µM)
